Experimental data taken from patent US20230390277A1, “METHODS TO SENSITIZE TUMORS TO TREATMENT BY IMMUNOTHERAPY” (Ohio State Innovation Foundation, priority 2020, published 2023).

Columns and labels:
[1] = test system: orthotopic MP2 pODD tumors; experiment: in vivo bioluminescent imaging, orthotopic MP2 pODD tumors; parameters: species or system mouse; details: tail vein injection
Procedure: (§1) Orthotopic Panreatic Xenografts. MP2 PD AC cells (1×10^6) or the indicated derivates were implanted in immune-deficient athymic nu/nu mice following fACLIC approved protocols. Briefly, an incision was placed in the right flank of anesthetized animals the spleen and pancreas liberated. Cells were mixed 1:1 with Matfigel and implanted in the tail of the pancreas in 10 μl. Incision was sutured in 2 layers, animals given long lasting analgesics, and allowed to recover from anesthesia. Mice were returned to housing for post-op care and monitored daily for 4 days. Animals were checked weekly after that by palpation to determine tumor growth.
(§2) In vivo bioluminescent imaging. All animal experiments were performed according to protocols approved by the OSU institutional IAGLIC review (protocol #201200000124-R2), with daily veterinarian observation. For heterotopic flank tumor experiments, 1×10^6 HeLa pODD or 5×10^6 MP2 cells were injected subcutaneously (s.c.) into the flanks of 6-wk-old female (HeLa pODD) or male (N1P2 pODD or MP2 CMV) immunocompromised athymic nu/nu mice. […] Mice were anesthetized with 1.5% isoflurane and bioluminescence was measured every two minutes for the period of 25 minutes to identify peak response of each mouse to D-luciferin. Bioluminescent data were analyzed using living Image software (Perkin Elmer Inc) and calculated as photon flux/sec. […]

[2] = test system: HeLa pODD flank tumors; experiment: in vivo bioluminescent imaging, HeLa pODD flank tumors; parameters: species or system mouse; details: 4 mg/kg by tail vein
Procedure: In vivo bioluminescent imaging. All animal experiments were performed according to protocols approved by the OSU institutional IAGLIC review (protocol #201200000124-R2), with daily veterinarian observation. For heterotopic flank tumor experiments, 1×10^6 HeLa pODD or 5×10^6 MP2 cells were injected subcutaneously (s.c.) into the flanks of 6-wk-old female (HeLa pODD) or male (N1P2 pODD or MP2 CMV) immunocompromised athymic nu/nu mice. Replicate experiments with groups of 4-6 mice were used for statistical reproducibility. Caliper measurements of opposing diameters were used to calculate the tumor volumes using the modified ellipsoidal formula: tumor volume=(length×width^2)[23]. Upon reaching 100 mm^3, the animals were given 100 mg/kg D-luciferin intraperitoneally and bioluminescence images were captured using IVIS In Vivo Imaging System Lumina II (Perkin Elmer Inc). Mice were anesthetized with 1.5% isoflurane and bioluminescence was measured every two minutes for the period of 25 minutes to identify peak response of each mouse to D-luciferin. Bioluminescent data were analyzed using living Image software (Perkin Elmer Inc) and calculated as photon flux/sec. Obtained individual photon flux peak values were then normalized to baseline for each mouse and averaged per group. […]

[3] = test system: CMT167 flank lung tumors; experiment: CMT167 flank lung tumors in C57Bl6 mice, sensitization to anti PD-1; format: in vivo, mouse; details: given 16 hours prior to sub-optimal anti-PD-1, days 10 and 13
Procedure: C57B16 mice bearing CMT167 flank lung tumors were treated as indicated on days 10 and 13 and relative volume followed.
There are reports in the literature indicating ways that hypoxia affects immune functions of lymphocytes, MDSCs and T regulatory cells infiltrating in the tumor.

[4] = test system: spontaneous canine soft tissue sarcoma; experiment: BOLD MRI of spontaneous canine soft tissue sarcoma; format: in vivo, dog; details: for fraction of tumors responding well (T2* increase): one hour
Procedure: BOLD MRI analysis of canine tumors. Canine patients with primary sarcomas were enrolled in a trial to evaluate the effects of papaverine delivered at a dose of 1 or 2 mg/kg using ire blood oxygen level dependent (BOLD) magnetic resonance imaging (MRI). Dogs were anesthetized with isoflurane in medical air to effect on the bed of a Philips ingenia 3.071 UR scanner. They were first imaged with T1- (TR: 700ms, TE: 9ms, resolution 0.3×0.3×3 mm) and T2-weighted (TR: 3000 ms, TE: 80ms, resolution 0.4×0.4×3 mm) scans in transaxial, coronal, and sagittal orientations to acquire data covering the extent of the tumor. BOLD data were acquired as a series of 60 repeats of a volumetric echo-planar T2-weighted sequence (TR: 3000 ms, TE: 35 ms, resolution 1.6×1.6×4 mm) collected over a period of 3 minutes. In addition, a single slice fast field echo (FIFE) sequence (resolution 0.5×0.5×4 mm) was used to acquire 8 images at echo times from 5 to 75 ms, allowing fitting of pixel T2* values. After these acquisitions, papaverine was delivered intravenously and the BOLD and FEE data were acquired again one hour post-administration. All data were analyzed using the RT Image software package. BOLD data were registered using an affine transformation and percent signal change was calculated on a per-pixel basis: T2* values were fit on a pixel-by-pixel basis using a Levenberg-Marquardt least squares fit to a monoexponential decay function.

[5] = test system: orthotopic MP2 CMV tumors; experiment: in vivo bioluminescent imaging, orthotopic MP2 CMV tumors; parameters: species or system mouse; details: single dose of 2 mg/kg by tail vein, up to 6 hours post injection
Procedure: as §1, §2

[6] = test system: MC38 colorectal tumor; experiment: MC38 colorectal tumors in C57Bl6 mice, sensitization to anti PD-1; format: in vivo, mouse
Procedure: MC38 tumors grown in C57B16 mice were treated as indicated with irrelevant antibody, anti PD-1, or anti PD-1 after PPV or SMV32 n=5-7, P=<0.05* for PPV and <0.01** for SMV32.
Papaverine and SMV32 enhance PD-1 checkpoint blockade immunotherapy for cancer treatment. Because of the literature describing the immunomodulatory effects of hypoxia^(24-27), we hypothesized that reducing hypoxia may also enhance tumor lymphocyte infiltration and function and improve immune-mediated tumor cell killing. As those of skill in the art recognize, there is a large body of literature and research on increase the supply side of the hypoxia equation, but it has been heretofore an unexpected approach to decrease the tri demand side of the hypoxia equation. We tested tumors grown from the relatively immune-sensitive syngeneic MC38 colorectal tumor line in immuno-competent C5713116 mice. […] In a second cohort, we implanted 1×10^6 cells/mouse and after 5 days, when tumors were 50-100 mm^3, they were randomized into four groups. Therapy was started with either control rat IgG antibody, or a suboptimal dose of anti PD-1(CD279) blocking monoclonal antibody (BioXCell, clone 29F.1A12, 100 μg ip every 3 days).

[7] = molecular target: T1, PDE10A (Homo sapiens, UniProt Q9Y233); experiment: PDE10A purified enzyme activity assay (BPS Bioscience); format: biochemical; details: dose response analysis
T1 construct: purchased BPS Bioscience
T1 sequence (Q9Y233 whole entry): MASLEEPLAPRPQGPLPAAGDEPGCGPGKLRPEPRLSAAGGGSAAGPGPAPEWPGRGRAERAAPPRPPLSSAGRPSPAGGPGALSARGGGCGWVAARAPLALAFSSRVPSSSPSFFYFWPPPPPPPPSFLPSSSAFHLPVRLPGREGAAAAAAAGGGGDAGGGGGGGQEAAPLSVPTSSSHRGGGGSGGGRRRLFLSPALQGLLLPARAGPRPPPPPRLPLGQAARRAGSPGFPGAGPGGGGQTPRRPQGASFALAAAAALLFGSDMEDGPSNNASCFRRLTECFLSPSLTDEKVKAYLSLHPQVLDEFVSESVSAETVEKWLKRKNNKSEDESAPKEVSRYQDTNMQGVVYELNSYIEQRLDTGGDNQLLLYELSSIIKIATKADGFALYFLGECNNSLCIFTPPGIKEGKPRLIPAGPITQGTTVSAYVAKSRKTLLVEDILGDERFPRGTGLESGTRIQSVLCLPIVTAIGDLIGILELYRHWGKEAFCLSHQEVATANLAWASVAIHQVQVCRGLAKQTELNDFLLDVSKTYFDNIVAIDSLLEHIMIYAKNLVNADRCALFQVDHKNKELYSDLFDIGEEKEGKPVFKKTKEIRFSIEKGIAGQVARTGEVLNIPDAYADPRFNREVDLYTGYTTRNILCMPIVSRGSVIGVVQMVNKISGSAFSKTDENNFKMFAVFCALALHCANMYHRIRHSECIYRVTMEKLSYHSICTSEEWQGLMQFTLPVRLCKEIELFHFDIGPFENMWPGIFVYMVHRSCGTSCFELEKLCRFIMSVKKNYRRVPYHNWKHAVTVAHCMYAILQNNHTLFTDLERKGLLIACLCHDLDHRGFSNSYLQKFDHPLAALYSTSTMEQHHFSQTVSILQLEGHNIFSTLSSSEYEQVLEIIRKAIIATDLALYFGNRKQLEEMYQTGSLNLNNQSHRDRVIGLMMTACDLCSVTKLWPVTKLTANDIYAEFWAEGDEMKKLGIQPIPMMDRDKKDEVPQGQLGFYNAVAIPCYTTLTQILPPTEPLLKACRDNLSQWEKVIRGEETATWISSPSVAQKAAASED
Description: We therefore defined the structure activity relationship (SAR) of PPV relative to two assays: inhibition of cellular OCR by Seahorse XE assay, and inhibition of PDE10A by purified enzyme activity (PDE10A activity assay, BPS Bioscience). […] Because the top portion of PPV was a planar structure like that of rotenone, we decided to focus our attention on the lower portion of the molecule.

[8] = test system: LLC tumor; experiment: Lewis Lung Carcinoma (LLC) PD-1 blockade resistant tumor model; format: in vivo, mouse; details: treated on days 5, 8
Procedure: LLC tumor bearing mice were treated as indicated on days 5, 8 and relative growth followed. P=NS for PD-1 vs PPV->PD1, 0.04 for PD-i vs SMV32->PD-1.
Finally, as a rigorous test of anti-hypoxia agents as immuno-sensitizers of model tumors grown in mice, we next tested the PD-1 blockade resistant tumor model Lewis Lung Carcinoma (LLC). These tumors have been reported to be refractory to even full dose (200 ug/mouse) PD-1 blocking antibody.

[9] = test system: MP2 pODD flank tumors; experiment: in vivo bioluminescent imaging, heterotopic MP2 pODD flank tumors; parameters: species or system mouse; details: intraperitoneal delivery of 2 mg/kg
Procedure: In vivo bioluminescent imaging. […] For heterotopic flank tumor experiments, 1×10^6 HeLa pODD or 5×10^6 MP2 cells were injected subcutaneously (s.c.) into the flanks of 6-wk-old female (HeLa pODD) or male (N1P2 pODD or MP2 CMV) immunocompromised athymic nu/nu mice. Replicate experiments with groups of 4-6 mice were used for statistical reproducibility. Caliper measurements of opposing diameters were used to calculate the tumor volumes using the modified ellipsoidal formula: tumor volume=(length×width^2)[23]. Upon reaching 100 mm^3, the animals were given 100 mg/kg D-luciferin intraperitoneally and bioluminescence images were captured using IVIS In Vivo Imaging System Lumina II (Perkin Elmer Inc). […] Bioluminescent data were analyzed using living Image software (Perkin Elmer Inc) and calculated as photon flux/sec. Obtained individual photon flux peak values were then normalized to baseline for each mouse and averaged per group. Gas inhalation experiments were performed by switching medical air and carbogen gas sources for the IVIS anesthesia vaporizer. Initial baselines were established in medical air under anesthesia, then the mice were subjected to 30 minutes of either medical air or carbogen rebreathing in an air-tight chamber while awake. After 30 minutes, photon flux was established in respective gas sources as a carrier for isoflurane anesthesia.

`COc1ccc(Cc2nccc3cc(OC)c(OC)cc23)cc1OC` [PPV, papaverine] was tested, and the “reduction in photon flux compared to vehicle” value [1] was 45%, the “photon flux reduction, dose comparison” value [2] was “greater photon flux reduction than the 2 mg/kg dose” and the “tumor growth delay” value [3] was “significant tumor growth delay”. For the same compound, the “fraction of tumors responding well (T2* increase)” value ([4]; 1 mg/kg IV) was 1/4, the “fraction of tumors responding well (T2* increase)” value ([4]; 2 mg/kg IV) was 3/5 and the “tumor oxygenation” value ([4]; 1 or 2 mg/kg IV) was “increases oxygenation”. For the same compound, the “CMV luciferase activity vs vehicle” value [5] was “no difference”, the “effect on PD-1 blockade” value ([6]; 2 mg/kg iv 16 hours prior to suboptimal anti PD-1 (100 μg ip every 3 days)) was “enhance the effectiveness of suboptimal PD-1 blockade” and the “tumor growth, compound alone” value ([6]; repeated dosing, no antibody) was “no effect on tumor growth”. For the same compound, the “PDE inhibition IC25” value [7] was 0.65 µM, the “therapeutic effect, compound first and PD-1 antibody second” value [8] was “no therapeutic benefit” and the “photon flux” value [9] was “did not reduce the photon flux”.
